Laboratory results reported in US10683278B2 (JINAN UNIVERSITY, priority 2015, dated 2020).
Where two headings read alike, the source gives them in different places. Values belong to the compound of their own block, whether it stands above or below them.

Columns and labels:
Molm-13 cells = test: Inhibition of proliferation of Molm-13 cells (CCK-8); type: cell-based; settings: Homo sapiens, 72 h, mean±standard deviation of two independent tests
Experimental: [Worded in the source for another cell line; this cell line is reported under the same test.] (§1) 12000 g of compounds were centrifuged for 5 min, DMSO was added to make a 10^−2M stock solution, vortexed uniformly and sonicated for 10 min for standby application, and stored at −40° C. The compounds were diluted from the stock solution with saline to 10 times the concentration to be tested (concentration of DMSO in the system being no more than 0.5%) during the test.
(§2) The inhibitory effect of the compounds on the proliferation of MV4-11 cells was detected using a CCK-8 cell counting kit (Dojindo). The specific steps are as follows: the MV4-11 cells in logarithmic growth phase were seeded into a 96-well culture plate at a suitable density in 90 μL/well, cultured overnight, compounds at different concentrations were then added and acted on cells for 72 hr, and the solvent control group (negative control) was set up. The effect of the compounds on cell proliferation was detected using a CCK-8 cell counting kit (Dojindo) after the compounds had acted on the cells for 72 h. 10 μL of CCK-8 reagent was added to each well, same was placed in an incubator at 37° C. for 2-4 hours, and the reading from the full-wavelength microwell plate ELIASA SpectraMax 190 was performed with a wavelength of 450 nm.
(§3) IC50 value was calculated using a software included with ELIASA by the four-parameter regression.
(§4) IC50 for the inhibition of the compounds on each stain of cells was derived from two independent repeated tests, and the results are shown as the mean±standard deviation.

MV4-11 cells = test: Inhibition of proliferation of MV4-11 cells (CCK-8); type: cell-based; settings: Homo sapiens, 72 h, mean±standard deviation of two independent tests
Experimental: as §1, §2, §3, §4

AXL kinase = target: T1, AXL kinase (Homo sapiens, UniProt P30530); test: IC50 test on AXL kinase (Z′-LYTE FRET kinase activity detection); type: biochemical; settings: for IC50: Z′-LYTE FRET peptide assay, 1 h reaction; for inhibitory activity on AXL kinase: competitive experiment with ATP, in words
T1 construct: purchased Invitrogen PV4803
T1 sequence (P30530 26-894): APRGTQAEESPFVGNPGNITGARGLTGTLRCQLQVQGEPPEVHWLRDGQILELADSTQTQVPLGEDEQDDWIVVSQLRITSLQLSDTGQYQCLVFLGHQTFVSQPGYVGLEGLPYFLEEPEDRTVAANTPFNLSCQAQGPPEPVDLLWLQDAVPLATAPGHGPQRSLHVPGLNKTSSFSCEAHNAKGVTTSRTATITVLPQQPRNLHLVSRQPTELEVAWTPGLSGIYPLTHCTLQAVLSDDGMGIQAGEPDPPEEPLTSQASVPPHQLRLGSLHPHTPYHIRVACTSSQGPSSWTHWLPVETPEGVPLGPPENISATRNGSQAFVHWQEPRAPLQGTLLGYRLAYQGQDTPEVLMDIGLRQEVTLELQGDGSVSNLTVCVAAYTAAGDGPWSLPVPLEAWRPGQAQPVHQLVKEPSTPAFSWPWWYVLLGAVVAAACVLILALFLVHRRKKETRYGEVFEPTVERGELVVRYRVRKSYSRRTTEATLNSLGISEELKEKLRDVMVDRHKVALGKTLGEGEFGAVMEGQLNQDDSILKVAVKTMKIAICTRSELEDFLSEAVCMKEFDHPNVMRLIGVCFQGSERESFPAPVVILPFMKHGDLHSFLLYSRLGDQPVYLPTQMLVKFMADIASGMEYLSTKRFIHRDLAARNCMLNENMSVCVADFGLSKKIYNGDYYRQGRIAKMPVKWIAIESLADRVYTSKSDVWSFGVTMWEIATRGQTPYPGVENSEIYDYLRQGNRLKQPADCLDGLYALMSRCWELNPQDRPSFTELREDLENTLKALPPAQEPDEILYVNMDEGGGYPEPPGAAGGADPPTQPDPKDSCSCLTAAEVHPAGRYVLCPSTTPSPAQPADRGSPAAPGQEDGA
Method in brief: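 Z′-LYTE FRET readout: after 1 h kinase reaction (AXL, Tyr 2 peptide, ATP, compound dilutions), a 1 h protease step cuts unphosphorylated substrate. Excitation at 400 nm, signals at 445 nm and 520 nm used to derive IC50.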

[1] = In vivo pharmacokinetic and bioavailability experiments of rats; design: species or system SD rats; settings: Sprague-Dawley, rat, plasma; for Cmax: read-out: Cmax
Experimental: Pharmacokinetic and bioavailability experiments of rats. SD rats were administered orally (25 mg/kg) and intravenously (2.5 to 5 mg/kg) at a single dose. Animal blood samples were taken at appropriate time points after administration, heparin was added as anticoagulant, and same were centrifuged at 8000 rpm/min for 6 minutes, the supernatant was then taken and stored at −20° C. for HPLC-MS analysis. The proteins in blood samples were precipitated with acetonitrile at 12000 rpm for 10 min, and the supernatant was used for HPCL-MS analysis. Data were fit using DAS2.0 to obtain compartmental model and non-compartmental model parameters, respectively. The oral bioavailability of each compound was calculated according to AUC data.

[2] = target: T2, FLT-3 kinase domain recombinant protein (Homo sapiens, UniProt P36888); test: Inhibition rate on FLT3 kinase (ELISA); type: biochemical; settings: two values per compound
T2 construct: 50 μL FLT-3 kinase domain recombinant protein diluted with reaction buffer to initiate the reaction
T2 sequence (P36888 610-943 limits assumed): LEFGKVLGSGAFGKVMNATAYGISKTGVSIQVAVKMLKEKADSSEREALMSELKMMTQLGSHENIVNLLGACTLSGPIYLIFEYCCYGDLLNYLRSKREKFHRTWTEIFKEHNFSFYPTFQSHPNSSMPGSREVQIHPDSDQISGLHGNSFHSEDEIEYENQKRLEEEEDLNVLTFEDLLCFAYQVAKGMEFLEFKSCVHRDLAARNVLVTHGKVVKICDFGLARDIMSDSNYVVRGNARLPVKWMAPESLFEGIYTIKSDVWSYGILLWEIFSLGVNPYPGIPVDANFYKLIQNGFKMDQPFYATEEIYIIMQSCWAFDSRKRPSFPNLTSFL
Experimental: Conventional enzyme-linked immunosorbent assay (ELISA) method is used, and the specific steps are as follows
as §1, with “12,000 g” for “12000 g”, “with DMSO” for “with saline”, “to 100” for “to 10”, “being 1%)” for “being no more than 0.5%)”
1. The enzyme reaction substrate Poly (Glu, Tyr) 4:1 was diluted to 20 μg/mL with potassium-free PBS (10 mM sodium phosphate buffer, 150 mM NaCl, pH 7.2-7.4), the ELISA plate was coated with same in 125 μL/well, and reacted at 37° C. for 12-16 hours, the liquid in wells was discarded, the plate was washed three times, for 5 minutes each time, with T-PBS (potassium-free PBS with 0.1% Tween-20, 200 μL/well), and the ELISA plate was dried in an oven at 37° C. for 1-2 hours.
2. To each well were added 49 μL of ATP solution diluted with reaction buffer (50 mM HEPES pH 7.4, 50 mM MgCl2, 0.5 mM MnCl2, 0.2 mM Na3VO4, 1 mM DTT), 1 μL of compounds to be tested, and 50 μL FLT-3 kinase domain recombinant protein diluted with reaction buffer to initiate the reaction (two ATP-free control wells are required for each experiment). Subject to a shaker (100 rpm) at 37° C. and reacted for 1 hour. The liquid in wells was discarded, and the plate was washed three times with T-PBS.
(§5) 3. Antibody PY99 diluent (the antibody was diluted in 1:500 with T-PBS which contains 5 mg/mL BSA) was added in 100 μL/well, subjected same to a shaker at 37° C. and reacted for 0.5 hour. The liquid in wells was discarded, and the plate was washed three times with T-PBS.
as §5, with “4. Horseradish peroxidase labeled goat anti-mouse secondary antibody” for “3. Antibody PY99”, “1:2000” for “1:500”, “mg/ml” for “mg/mL”
5. 2 mg/ml of OPD developing solution (diluted with 0.1 M citric acid-sodium citrate buffer which contains 0.03% H2O2 (pH=5.4)) was added in 100 μL/well, and reacted at 25° C. in the dark for 1-10 minutes.
6. 2 M H2SO4 was added in 50 μL/well to stop the reaction, and the reading from the wavelength-adjustable microwell plate ELIASA VERSAmax was performed with a wavelength of 490 nm.

[3] = SD rats, Po, 25 mg/kg single dose
[4] = SD rats, iv, 5 mg/kg single dose

IC50 (Molm-13 cells): > 300 nM
IC50 (MV4-11 cells): > 500 nM
IC50 (AXL kinase): 9 nM
inhibitory activity on AXL kinase (AXL kinase): strong inhibitory activity
Compound: CCc1ccc2c(c1)c(=O)c(C(=O)Nc1ccc(Oc3ncnc4cc(OC)c(OC)cc34)c(F)c1)c(CC)n2C [TL4830074, N-(4-(6,7-dimethoxyquinazolin-4-yloxy)-3-fluorophenyl)-2,6-diethyl-1-methyl-4-oxo-1,4-dihydroquinoline-3-carboxamide]

bioavailability ([1]; po, 25 mg/kg, read-out: F (oral bioavailability)): 7.92%
AUC(0-inf) [1, 3]: 12200 ng·h/mL
AUC(0-t) [1, 3]: 3800 ng·h/mL
half-life [1, 3]: 35.5 h
Cmax [1, 3]: 219 ng/mL
AUC(0-inf) [1, 4]: 13000 ng·h/mL
AUC(0-t) [1, 4]: 9600 ng·h/mL
clearance [1, 4]: 6.5 mL/min/kg
half-life [1, 4]: 12.7 h
Cmax [1, 4]: 1140 ng/mL
IC50 (AXL kinase): 58 nM
Inhibition rate (%) against receptor tyrosine kinase FLT-3 ([2]; compound 10 nM, 0.01 µM): 49.8%
inhibition at 0.01 µM ([2]; compound 10 nM, read-out: Inhibition rate (%) against receptor tyrosine kinase FLT-3): 44.7%
Inhibition rate (%) against receptor tyrosine kinase FLT-3 ([2]; compound 100 nM, 0.1 µM): 57.4%
inhibition at 0.1 µM ([2]; compound 100 nM, read-out: Inhibition rate (%) against receptor tyrosine kinase FLT-3): 66.4%
Inhibition rate (%) against receptor tyrosine kinase FLT-3 ([2]; compound 1000 nM, 1 µM): 80.9%
inhibition at 1 µM ([2]; compound 1000 nM, read-out: Inhibition rate (%) against receptor tyrosine kinase FLT-3): 87.6%
Compound: COc1cc2ncnc(Oc3ccc(NC(=O)c4cn5c6c(c(N7CCN(C)CC7)c(F)cc6c4=O)OCN5C)cc3F)c2cc1OC [TL4830039, N-(4-((6,7-dimethoxyquinazolin-4-yl)oxy)-3-fluorophenyl)-9-fluoro-3-methyl-10-(4-methylpiperazin-1-yl)-7-oxo-2,3-dihydro-7H-[1,3,4] oxadiazino[6,5,4-ij]quinoline-6-carboxamide]

IC50 (Molm-13 cells): 19.5 ± 2.7 nM
IC50 (MV4-11 cells): < 2 nM
Compound: CC(C)(C)c1cc(NC(=O)Nc2ccc(-c3cn4c(n3)sc3cc(OCCN5CCOCC5)ccc34)cc2)no1 [AC220, reference compound]

IC50 (Molm-13 cells): 38.6 ± 18 nM
IC50 (AXL kinase): 5 nM
inhibitory activity on AXL kinase (AXL kinase): strong inhibitory activity
Compound: CCc1ccc2c(c1)c(=O)c(C(=O)Nc1ccc(Oc3ncnc4cc(OCCCOC)c(OC)cc34)c(F)c1)c(C)n2C [TL4830073, 6-ethyl-N-(3-fluoro-4-((6-methoxy-7-(3-methoxypropoxy)quinazolin-4-yl)oxy)phenyl)-1,2-dimethyl-4-oxo-1,4-dihydroquinoline-3-carboxamide]
